US11162071B2, “Compositions and methods for generating hair cells by upregulating JAG-1” (Frequency Therapeutics, Inc., priority 2018, dated 2021)
“Also recorded” adds a separate entry of the source.

What was measured:
[1] = tested on: cochlear Lgr5 progenitor cells; assay: Expansion and enrichment of Lgr5-GFP cochlear progenitor cells in 3D culture (Lgr5+ assay); format: cell-based, mouse
Text: “Stem Cell Proliferation Assay” as used herein is an assay to determine the capacity for agent(s) to induce the creation of stem cells from a starting cell population. In an exemplary Stem Cell Proliferation Assay, the number of cells for an initial cell population is harvested from a Lgr5-GFP mouse such as a B6.129P2-Lgr5tm1(cre/ERT2)Cle/J mouse (also known as Lgr5-EGFP-IRES-creERT2 or Lgr5-GFP mouse, Jackson Lab Stock No: 008875) between the age of 0 to 5 days, by isolating the organ of Corti sensory epithelium and dissociating the epithelium into single cells. Approximately 5000 cells are entrapped in 40 μl of culture substrate (for example: Matrigel (Corning, Growth Factor Reduced)) and placed at the center of wells in a 24-well plate with 500 μl of an appropriate culture media, growth factors and agent being tested. Appropriate culture media and growth factors include Advanced DMEM/F12 with media Supplements (1×N2, 1× B27, 2 mM Glutamax, 10 mM HEPES, 1 mM N-acetylcysteine, and 100 U/ml Penicillin/100 μg/ml Streptomycin) and growth factors (50 ng/ml EGF, 50 ng/ml bFGF, and 50 ng/ml IGF-1) as well as the agent(s) being assessed are added into each well. Cells are cultured for 10 days in a standard cell culture incubator at 37° C. and 5% CO2, with media change every 2 days. The number of Lgr5+ cells is quantified by counting the number of cells identified as Lgr5+ in an In Vitro Lgr5 activity assay. The fraction of cells that are Lgr5+ is quantified by dividing the number of cells identified as Lgr5+ in a cell population by the total number of cells present in the cell population. The number of hair cells in a population may be measured by staining with hair cell marker (e.g., Myosin VIIa), or using an endogenous reporter of hair cell genes (e.g., Pou4f3-GFP, Atoh1-nGFP) and analyzing using flow cytometry. The fraction of cells that are hair cells is quantified by dividing the number of cells identified as hair cells in a cell population by the total number of cells present in the cell population. Gene and/or protein expression and/or activity is measured in this assay using methods known in the art such as by PCR, Nanostring, immunostaining, RNAseq, RNA hybridization, or Western blot analysis.
Neonatal Lgr5-EGFP-IRES-Cre-ER mice (The Jackson Laboratory, strain 8875) were used to analyze the effects of small molecules on cochlear stem cell expansion (see Barker et al., Nature 449, 1003-7 (2007). This strain allowed for visualization and quantification of EGFP cells.
All animal studies were conducted under an approved institutional protocol per National Institutes of Health guidelines. Using neonatal animals, cochleae were dissected and the organ of Corti (sensory epithelium) was separated from the stria vascularis (ion transport epithelium) and the modiolus (nerve tissue). Epithelia were then collected and treated with TrypLE for 15-20 minutes to obtain single cells. The cells were then filtered ([…]) and suspended in a Matrigel (Corning) dome for 3D culture seeded at 0.5 cochlea per well.
Expansion of Lgr5 Cells: Cells were cultured in a 3D system and bathed in a serum free 1:1 mixture of DMEM and F12, supplemented with Glutamax (GIBCO), N2, B27 (Invitrogen), EGF (50 ng/mL; Chemicon), bFGF (50 ng/mL; Chemicon), IGF-1 (50 ng/mL; Chemicon), and small molecules for seven days. Media was changed every other day. Treatments were run in triplicate or quadruplicate.
Lgr5 cells were quantified after 7-10 days. Cell colonies were dissociated into single cells using TrypLE. The cells were then stained with propidium iodide (PI) and analyzed using a flow cytometer to count Lgr5-EGFP cells. The percentage of viable Lgr5 cells was plotted against the concentration in GraphPad Prism.
Organ of Corti are dissected from Lgr5 GFP+ mice and dissociated as single cells as described above. Background media contains the same supplements and growth factors at the same concentrations as described above. […]

Jag-1 [2] = assay: Jag-1 expression in cultured Lgr5+ cells, Western blot band intensity normalized to GAPDH; format: cell-based, mouse
Experimental: Calculated Jag-1 normalized to GAPDH using GelQuant software and bands quantified. Net volumes of Jag-1 bands were divided by net volume values of matched GAPDH bands. These values were normalized to vehicle in a background of growth factors including: 50 ng/mL EGF (E), 50 ng/mL bFGF (F), and 50 ng/mL IGF1 (I).
Cultures contained a background of growth factors including: 50 ng/mL EGF (E), 50 ng/mL bFGF (F), and 50 ng/mL IGF1 (I).
Calculated Jag-1 normalized to GAPDH using GelQuant software and bands quantified. Net volumes of Jag-1 bands were divided by net volume values of matched GAPDH bands. These values were normalized to vehicle.

HDAC [3] = assay: HDAC inhibition in Lgr5 cell culture (FIG. 5); format: cell-based; settings: with and without CHIR; EFI background (FIG. 5)
HDAC [4] = settings: Table 6, cited from earlier work; for Class selectivity: HDAC class
GSK-3 alpha [5] = target: GSK-3 alpha (Homo sapiens, UniProt P49840); settings: Table 3; cited from earlier work
GSK-3 alpha [6] = target: GSK-3 alpha (Homo sapiens, UniProt P49841); settings: GSK-3 alpha of Table 3; cited from earlier work
Jag-1 [7] = assay: Jag-1 upregulation/expression in cultured Lgr5+ cells (qPCR); format: cell-based, mouse; settings: for Jag-1 upregulation: EFI background (FIG. 3)
[8] = 1,4-DPCA 370 nM with CHIR 4 μM + VPA 1 mM, versus CHIR+VPA, EFI background
[9] = control compounds CHIR99021 4 μM and Valproic Acid 1 mM, EFI background
[10] = SF1670 0.1 μM added to CHIR, versus CHIR, EFI background
[11] = daprodustat 1.11 μM with CHIR 4 μM + VPA 1 mM, versus CHIR and CHIR+VPA, EFI background
[12] = AS1842856 425 nM alone, EFI background
[13] = AS1842856 concentration series, EFI background (FIG. 7)
[14] = VO-Ohpic 3 μM added to CHIR, versus CHIR, EFI background

GSK-3 alpha (Homo sapiens, UniProt P49840), sequence (P49840 whole entry): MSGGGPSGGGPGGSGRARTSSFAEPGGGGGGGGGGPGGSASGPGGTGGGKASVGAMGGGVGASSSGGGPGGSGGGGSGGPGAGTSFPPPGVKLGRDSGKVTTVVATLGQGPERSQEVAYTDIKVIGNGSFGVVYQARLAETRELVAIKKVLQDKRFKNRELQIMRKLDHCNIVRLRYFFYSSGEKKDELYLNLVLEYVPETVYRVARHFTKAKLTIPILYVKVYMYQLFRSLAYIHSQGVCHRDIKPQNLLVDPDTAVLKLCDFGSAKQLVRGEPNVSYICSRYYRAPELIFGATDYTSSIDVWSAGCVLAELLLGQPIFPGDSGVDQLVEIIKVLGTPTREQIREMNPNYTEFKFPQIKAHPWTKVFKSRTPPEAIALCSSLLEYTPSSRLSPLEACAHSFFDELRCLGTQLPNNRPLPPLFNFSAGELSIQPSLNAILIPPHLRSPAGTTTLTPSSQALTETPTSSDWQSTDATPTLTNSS
GSK-3 alpha (Homo sapiens, UniProt P49841), sequence (P49841 whole entry): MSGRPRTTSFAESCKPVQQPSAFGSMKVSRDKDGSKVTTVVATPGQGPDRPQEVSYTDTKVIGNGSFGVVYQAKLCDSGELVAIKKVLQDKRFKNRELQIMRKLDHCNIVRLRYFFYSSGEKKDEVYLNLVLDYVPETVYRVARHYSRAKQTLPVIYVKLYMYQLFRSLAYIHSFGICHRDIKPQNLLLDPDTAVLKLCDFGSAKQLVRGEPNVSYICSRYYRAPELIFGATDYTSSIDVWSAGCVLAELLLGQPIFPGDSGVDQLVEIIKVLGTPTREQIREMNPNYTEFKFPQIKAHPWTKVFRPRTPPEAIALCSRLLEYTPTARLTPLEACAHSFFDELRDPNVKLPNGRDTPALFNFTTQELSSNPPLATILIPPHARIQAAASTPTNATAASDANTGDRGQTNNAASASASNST

## O=C(O)c1c[nH]c2c(ccc3cccnc32)c1=O [1,4-DPCA, 4,4α-dihydro-4-oxo-1,10-phenanthroline-3-carboxylic acid]
[1]; [8]
  Lgr5 GFP+ progenitor cell proliferation: enhances Lgr5 GFP+ progenitor cell proliferation
  enrichment of Lgr5 GFP+ progenitor cells: shows a trend for enrichment; also recorded: enhances Lgr5 GFP+ progenitor cell proliferation and enrichment
[1]; agent alone, EFI background
  enrichment of Lgr5 GFP+ cochlear progenitor cells: does not enrich; also recorded: does not proliferate or enrich
  proliferation of Lgr5 GFP+ cochlear progenitor cells: does not proliferate

## CCCC(CCC)C(=O)[O-].[Na+] [Sodium Valproate]
[1]; [9]
  enrichment of Lgr5 GFP+ cochlear progenitor cells: enrich
Jag-1 [2]; AS1842856 425 nM plus VPA 1 mM, versus AS1842856 alone
  Jag-1 upregulation: enhanced the effects of 425 nM AS1842856 on Jag-1 upregulation
HDAC [3]
  HDAC inhibition: concentration dependent increase in HDAC inhibition
HDAC [4]
  Class selectivity: Class I
  HDAC Potenc: 39 to 161 µM

## O=C(O)CNC(=O)c1nc(Cl)c2ccccc2c1O [FG-2216, N-[(1-chloro-4-hydroxy-3-isoquinolinyl)carbonyl]-glycine]
[1]; FG-2216 30 μM with CHIR 4 μM + VPA 1 mM, versus CHIR and CHIR+VPA, EFI background
  Lgr5 GFP+ progenitor cell proliferation: proliferates Lgr5 GFP+ progenitor cell similarly
[1]; FG-2216 30 μM with CHIR 4 μM + VPA 1 mM, versus CHIR+VPA, EFI background
  enrichment of Lgr5 GFP+ progenitor cells: shows a trend for enhanced enrichment
[1]; FG-2216 30 μM with CHIR 4 μM, versus CHIR and CHIR+VPA 1 mM, EFI background
  Lgr5 GFP+ progenitor cell proliferation: enhances Lgr5 GFP+ progenitor cell proliferation
[1]; FG-2216 30 μM with CHIR 4 μM, versus CHIR+VPA 1 mM, EFI background
  enrichment of Lgr5 GFP+ progenitor cells: enhances enrichment; also recorded: enriches Lgr5 GFP+ progenitor cell enrichment
[1]; agent alone, EFI background
  enrichment of Lgr5 GFP+ cochlear progenitor cells: does not enrich; also recorded: does not proliferate or enrich
  proliferation of Lgr5 GFP+ cochlear progenitor cells: does not proliferate

## O=C1NC(=O)C(c2cnc3ccccn23)=C1c1cn2c3c(cc(F)cc13)CN(C(=O)N1CCCCC1)CC2 [LY2090314, 3-(9-fluoro-2-(piperidine-1-carbonyl)-1,2,3,4-tetrahydro-[1,4]diazepino[6,7,1-hi]indol-7-yl)-4-(imidazo[1,2-a]pyridin-3-yl)-1H-pyrrole-2,5-dione]
GSK-3 alpha [5]
  GSK-3 alpha: 2.1 nM
GSK-3 alpha [6]
  GSK-3 alpha: 0.9 nM

## Cc1c[nH]c(-c2cnc(NCCNc3ccc(C#N)cn3)nc2-c2ccc(Cl)cc2Cl)n1 [CHIR99021]
[1]; CHIR alone, EFI background
  enrichment (percent LGR5-GFP(+) cell) of cochlear Lgr5 progenitor cells: elicits
[1]; CHIR alone, background 50 ng/mL EGF, bFGF, IGF1 (EFI)
  expansion (LGR5-GFP(+) cell count) of cochlear Lgr5 progenitor cells: elicits the expansion
[1]; [9]
  enrichment of Lgr5 GFP+ cochlear progenitor cells: enrich
Jag-1 [7]; agent alone
  Jag-1 upregulation: upregulated Jag-1

## Jag-1 peptide: soluble Jag-1 peptide (residues 188-204), CDDYYYGFGCNKFCRPR (SEQ ID NO:1) (listed as Homo sapiens)
[1]; 0.25 μM Jag-1 peptide added to 4 μM CHIR, EFI background
  Lgr5+ cell proliferation: able to recapitulate enhancement of Lgr5+ cell proliferation; also recorded: enhances CHIR induced Lgr5+ cell proliferation

## CC(C)(C)C(=O)Nc1ccc2c(c1)C(=O)C(=O)c1ccccc1-2 [SF1670]
[1]; [10]
  enrichment (percent LGR5-GFP(+) cell) of cochlear Lgr5 progenitor cells: further enhanced
  expansion (LGR5-GFP(+) cell count) of cochlear Lgr5 progenitor cells: further enhanced

## N#Cc1ccc2[nH]c(O)c(-c3ccc(CN4CCOCC4)cn3)c2c1 [AZD 1080]
GSK-3 alpha [5]
  GSK-3 alpha: 6.9 nM

## O=C(O)CNC(=O)C1C(=O)N(C2CCCCC2)C(=O)N(C2CCCCC2)C1=O [daprodustat, N-[(1,3-dicyclohexylhexahydro-2,4,6-trioxo-5-pyrimidinyl)carbonyl]-glycine]
[1]; agent alone, EFI background
  enrichment of Lgr5 GFP+ cochlear progenitor cells: does not enrich; also recorded: does not proliferate or enrich
  proliferation of Lgr5 GFP+ cochlear progenitor cells: does not proliferate
[1]; [11]
  Lgr5 GFP+ progenitor cell proliferation: does not enhance Lgr5 GFP+ progenitor cell proliferation
  enrichment of Lgr5 GFP+ progenitor cells: enhances enrichment

## CCn1cc(C(=O)O)c(=O)c2c(N)c(F)c(NC3CCCCC3)cc21 [AS1842856]
[1]; [12]
  expansion of cochlear Lgr5+ progenitor cells: elicits the expansion
[1]; AS1842856 425 nM combined with VPA 1 mM, EFI background
  enrichment of Lgr5 cells (percentage): enriched
[1]; [13]
  LGR5+ cell growth (Lgr5 GFP(+) Cell Count): concentration-dependent effects; also recorded: enhances expansion of cochlear progenitor cells concentration-dependent manner
  enrichment (Lgr5 GFP (%)): concentration-dependent effects
[1]; images, AS1842856 425 nM, EFI background
  Lgr5-GFP colony formation: promotes Lgr5-GFP colony formation
Jag-1 [7]; qPCR, AS1842856 425 nM alone, EFI background
  Jag-1 expression: upregulates Jag-1 expression
Jag-1 [2]; [12]
  Jag-1 expression: upregulates Jag-1 expression

## Cc1ccc(C(=O)Nc2c[nH]nc2C(=O)NCCCOC(C)C)cn1 [GSK XXII]
[1]; concentration range in Lgr5+ assay, Table 3
  Lgr5+ Assay: 0.2 to 1 µM
GSK-3 alpha [5]
  GSK-3 alpha: 2.3 nM

## Na phenylbutyrate
HDAC [4]
  Class selectivity: Class I >
  HDAC Potenc: 9 to 16 µM

## VO-Ohpic
[1]; [14]
  enrichment (percent LGR5-GFP(+) cell) of cochlear Lgr5 progenitor cells: enhanced
  expansion (LGR5-GFP(+) cell count) of cochlear Lgr5 progenitor cells: enhanced
Jag-1 [7]; VO-Ohpic 3 μM added to CHIR, versus CHIR
  Jag-1 upregulation: enhanced; also recorded: synergistically enhances Jag-1 upregulation
Jag-1 [7]; agent alone, listed as VO
  Jag-1 upregulation: does not upregulate Jag-1
HDAC [3]
  HDAC inhibition: does not elicit a detectable increase in HDAC inhibition

## C#CCC(CCCCCC)C(=O)O (centres unmarked) [2-hexyl-4-pentynoic acid]
HDAC [4]
  Class selectivity: Class I
  HDAC Potenc: 13 µM
